Data published in PMC7748245, “Identification and Optimization of a Series of 8-Hydroxy Naphthyridines with Potent In Vitro Antileishmanial Activity: Initial SAR and Assessment of In Vivo Activity” (Journal of Medicinal Chemistry, 2020).
In brackets after ≈: the same amount, converted by molar mass. Like-named read-outs stand apart in the source and are kept apart here. Values belong to the compound of their own block, whether it stands above or below them.

Legend:
L. donovani amastigotes = assay: Intramacrophage L. donovani assay (Ld InMac); type: cell-based, Leishmania donovani; conditions: for IC50 / LdInMac pIC50: supplement sheet; for IC50: read-out: LdInMac pIC50 (converted)
Method: (§1) This assay was conducted as previously described,[8] except for compound exposure time, which was 96 h instead of 72 h.

THP-1 cells = assay: THP-1 host cell toxicity readout of the intramacrophage assay; type: cell-based, human; conditions: for IC50: Homo sapiens, THP-1, read-out: THP1 pIC50 (converted); for IC50 / THP1 pIC50: supplement sheet; for EC50 / THP-1 (pEC50): human THP-1 host cells; for EC50: read-out: THP-1 (pEC50) (converted)
Method: as §1

[1] = Mouse liver microsomal intrinsic clearance; type: in vitro ADME; conditions: for Cli (mouse liver microsomal intrinsic clearance): mouse liver microsomes; for Cli (mouse, ml/min/g): supplement sheet
Method: (§2) These assays were conducted as previously described.[23]

[2] = Kinetic aqueous solubility; type: physicochemical; conditions: for solubility: aqueous medium (not further specified), supplement sheet; for solubility kinetic: read-out: Aq Solubility (kinetic aqueous solubility)
Method: as §2

Chrom Log D pH7.4 = type: physicochemical; conditions: for chromatographic logD / ChromLogDpH7.4: pH 7.4
Method: This assay was conducted as previously described.[11]

[3] = Mouse PK study 50 mg/kg ip (metabolites, tolerability); type: in vivo
Method: Since 7 itself was metabolically unstable (Cli = 10 mg/mL/g), we became interested in transferring the SAR from the triazole subseries (e.g., 16) to investigate its impact on metabolic stability, with a particular focus on glucuronidation. To this end, we synthesized 26 (Table 5) as a direct analogue of triazole 16.
Figure 3 PK profile of 26, showing levels of parent, glucuronide adduct, major hydroxylated metabolite, and other minor metabolites. Data are based on two replicates, with error bars representing the range of the data from the two runs. Blood/water (30 μL, 1:2) were collected following 50 mg/kg ip administration to Balb C mice at prescribed time points; 90 μL of acetonitrile (ACN) was then added to each sample and the samples were centrifuged for 5 min at 7000 rpm; 90 μL of supernatant was removed and added to 50 μL of Milli-Q water before ultrahigh-performance liquid chromatography–quadrupole time-of-flight (UPLC Q-TOF) analysis.
We synthesized a set of benzyl amides, where 4-methoxy analogue 27 and α-methyl-4-fluoro analogue 28 both gave very encouraging profiles, meeting progression criteria in terms of potency, metabolic stability, and clearance. […] Due to its impressive in vitro potency, we selected 28 for progression into an in vivo PK study.
We noted that a related compound from Merck, L-870,810 (30),[17] was reported as a clinical candidate targeting HIV integrase, which progressed as far as phase II clinical trials. […] Also, introducing substituents into the 5-naphthyridyl position had been a successful strategy for improving metabolic stability and potency in the triazole subseries. We therefore investigated a range of 5-substituted naphthyridyl analogues (Table 5). THP-amine 31 and morpholine 32 lost potency compared to parent compound 7, so we switched attention back to 5-phenylnaphthyridines. […] Further combinations of nonaromatic amides with differently substituted 5-phenylnaphthyridines were synthesized, and while changing the phenyl substituent gave flat SAR and no advantage over previous compounds, exploration of the amide led to 34 with a trans-4-methoxycyclopropylamide. Compound 34 gave a good balance of potency, solubility, and microsomal stability and was therefore selected for a mouse PK study.

monoamine oxidase A = target: T1, monoamine oxidase A (Homo sapiens, UniProt P21397); assay: GSK enhanced cross-screen panel (eXP): monoamine oxidase A; type: biochemical; conditions: read-out: pIC50 against monoamine oxidase A (converted)
T1 sequence (P21397 1-527): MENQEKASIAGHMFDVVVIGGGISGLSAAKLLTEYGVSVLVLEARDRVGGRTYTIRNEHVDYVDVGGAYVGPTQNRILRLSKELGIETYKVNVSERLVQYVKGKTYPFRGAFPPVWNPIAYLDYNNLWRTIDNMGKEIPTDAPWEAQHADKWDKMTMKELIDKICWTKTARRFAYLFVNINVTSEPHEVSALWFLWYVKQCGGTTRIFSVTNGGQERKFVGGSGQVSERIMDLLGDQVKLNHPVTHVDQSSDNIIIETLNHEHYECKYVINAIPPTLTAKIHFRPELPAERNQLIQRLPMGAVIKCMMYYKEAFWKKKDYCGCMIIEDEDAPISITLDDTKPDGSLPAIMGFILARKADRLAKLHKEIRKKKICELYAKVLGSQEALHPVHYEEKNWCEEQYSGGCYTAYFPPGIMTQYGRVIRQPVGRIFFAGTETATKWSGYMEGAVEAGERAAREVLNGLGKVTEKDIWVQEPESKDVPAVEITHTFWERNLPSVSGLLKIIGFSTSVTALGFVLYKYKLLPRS
Text: (§3) First, the compounds which were poorly tolerated in mice, 28 and 34, were screened against a panel of >30 receptors with known links to in vivo toxicity (GSK-enhanced cross-screen panel (eXP)).[18] […] From this, it was not clear whether the effects seen in the receptor screen were related to the observed in vivo toxicity.

[4] = tested on: cell health (mitochondrial integrity); assay: GSK eXP: phenotypic cell health assay; type: cell-based; conditions: GSK eXP panel
Text: as §3

Leishmania donovani = assay: VL mouse in vivo efficacy model (liver parasite burden, LDU)
Method: (§4) Because of having higher metabolic stability (in mouse liver microsomes) and lower Chrom Log D, compound 16 was progressed into a VL in vivo efficacy study, carried out in our previously described VL mouse model.[7] […] Parasite load was determined in the livers of animals 3 days after cessation of treatment, and parasite burden was expressed in Leishman Donovan units (LDUs, the mean number of amastigotes per liver cell × mg weight of liver). The blood exposure of compound 16 was also determined in dosed animals on days 1 and 5 to better understand the PK/pharmacodynamics (PD) relationship of the series. According to our project criteria, a compound needs to reduce parasite burden by >70% before being considered suitable for progression to lead-optimization, while a reduction of >95% would be considered suitable for a preclinical development candidate.[12]
In vivo studies were carried out as previously described.[12]

[5] = mouse, in vivo
Method: as §4, with “candidate.[12] In the study, miltefosine behaved as expected, reducing parasite levels by >99% at 30 mg/kg qd. After twice daily ip dosing at 50 mg/kg, compound 16 reduced parasite burden in mouse liver by 46%. This provided an early proof of concept for this series but fell short of our target of >70% parasite reduction.” for “candidate.[12]”

[6] = type: in vitro ADME, mouse
Method: As a means of measuring glucuronidation in vitro, 16 was assessed in a mouse liver hepatocyte assay.

[7] = target: bile salt export pump (BSEP) (Homo sapiens, UniProt O95342); assay: GSK eXP: bile salt export pump (BSEP) assay; type: biochemical; conditions: GSK eXP panel; read-out: pIC50 in BSEP assay (converted)
bile salt export pump (BSEP), sequence (O95342 whole entry, species assumed): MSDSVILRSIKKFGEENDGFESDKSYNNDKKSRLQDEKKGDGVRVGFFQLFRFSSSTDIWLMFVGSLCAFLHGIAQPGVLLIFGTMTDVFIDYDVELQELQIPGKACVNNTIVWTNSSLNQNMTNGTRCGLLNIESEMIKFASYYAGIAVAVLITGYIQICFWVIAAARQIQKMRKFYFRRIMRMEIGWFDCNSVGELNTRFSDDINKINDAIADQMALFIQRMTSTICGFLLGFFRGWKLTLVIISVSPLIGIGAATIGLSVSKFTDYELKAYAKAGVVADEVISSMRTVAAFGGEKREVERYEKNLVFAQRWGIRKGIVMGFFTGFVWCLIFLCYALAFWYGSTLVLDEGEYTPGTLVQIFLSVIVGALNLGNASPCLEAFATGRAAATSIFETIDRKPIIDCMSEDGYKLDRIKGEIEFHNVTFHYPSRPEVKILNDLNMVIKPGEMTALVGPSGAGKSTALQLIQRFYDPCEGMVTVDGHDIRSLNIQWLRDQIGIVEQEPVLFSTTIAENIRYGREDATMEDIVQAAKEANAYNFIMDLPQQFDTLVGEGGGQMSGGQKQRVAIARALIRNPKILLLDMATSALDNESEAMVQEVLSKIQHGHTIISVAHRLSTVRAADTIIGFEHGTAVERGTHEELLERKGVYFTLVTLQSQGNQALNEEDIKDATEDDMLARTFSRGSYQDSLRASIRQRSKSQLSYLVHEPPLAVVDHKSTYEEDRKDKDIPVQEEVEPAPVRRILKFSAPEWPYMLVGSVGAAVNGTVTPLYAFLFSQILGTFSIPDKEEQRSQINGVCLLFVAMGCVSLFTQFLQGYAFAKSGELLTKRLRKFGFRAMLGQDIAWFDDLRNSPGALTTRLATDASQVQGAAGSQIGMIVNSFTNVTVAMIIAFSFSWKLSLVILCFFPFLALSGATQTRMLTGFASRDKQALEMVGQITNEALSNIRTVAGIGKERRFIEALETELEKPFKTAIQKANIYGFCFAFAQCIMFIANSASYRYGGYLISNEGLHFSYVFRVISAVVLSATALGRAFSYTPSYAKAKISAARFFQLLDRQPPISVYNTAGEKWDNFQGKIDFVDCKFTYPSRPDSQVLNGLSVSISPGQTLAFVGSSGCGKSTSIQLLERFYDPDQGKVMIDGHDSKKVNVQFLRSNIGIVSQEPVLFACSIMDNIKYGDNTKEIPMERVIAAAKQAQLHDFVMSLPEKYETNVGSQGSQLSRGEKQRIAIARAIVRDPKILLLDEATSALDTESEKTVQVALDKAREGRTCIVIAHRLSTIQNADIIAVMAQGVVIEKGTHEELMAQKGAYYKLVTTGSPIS
Text: as §3

phospholipidosis = assay: GSK eXP: phospholipidosis assay; type: cell-based; conditions: GSK eXP panel
Text: as §3

[8] = chromatographic (HPLC retention) system, supplement sheet, read-out: ChromLogD
[9] = chromatographic system (Chrom Log D), read-out: ChromLogDpH7.4

SMILES: CC(NC(=O)c1ncc2cccnc2c1O)c1ccc(F)cc1 (stereo not drawn) [Compound 28, N-(1-(4-Fluorophenyl)ethyl)-8-hydroxy-1,6-naphthyridine-7-carboxamide]
IC50 (L. donovani amastigotes; Leishmania donovani): 0.158 µM
IC50 (THP-1 cells): 5.01 µM
EC50 (THP-1 cells): 5.01 µM
Cli (mouse liver microsomal intrinsic clearance) [1]: 3.7 mL/min/g
Cli (mouse, ml/min/g) [1]: 3.7 mL/min/g
solubility [2]: > 250 µg/mL
solubility kinetic [2]: > 250 µM
chromatographic logD (Chrom Log D pH7.4; [8]): 5.1
chromatographic logD (Chrom Log D pH7.4; [9]): 5.1
time to symptoms requiring termination ([3]; mouse): ≤ 3.5 h
tolerability in mouse PK study ([3]; mouse): proved to be toxic
IC50 (monoamine oxidase A): 3.98 µM
IC50 ([4]; read-out: pIC50 in phenotypic cell health assay (converted)): 12.6 µM

SMILES: COc1ccccc1-c1nc(C(=O)N[C@H]2CC[C@H](OC)CC2)c(O)c2ncccc12 [Compound 34, 8-Hydroxy-N-(trans-4-methoxycyclohexyl)-5-(2-methoxyphenyl)-1,6-naphthyridine-7-carboxamide]
EC50 (L. donovani amastigotes; Leishmania donovani, THP-1, 96 h, L. donovani amastigotes in THP-1 cells, 96 h compound exposure, read-out: Ld InMac (pEC50) (converted)): 1 µM
IC50 (L. donovani amastigotes; Leishmania donovani): 1 µM
IC50 (THP-1 cells): 39.8 µM
EC50 (THP-1 cells): 39.8 µM
Cli (mouse liver microsomal intrinsic clearance) [1]: 1.4 mL/min/g
Cli (mouse, ml/min/g) [1]: 1.4 mL/min/g
solubility [2]: > 250 µg/mL
solubility kinetic [2]: > 250 µM
chromatographic logD (Chrom Log D pH7.4; [8]): 5.7
chromatographic logD (Chrom Log D pH7.4; [9]): 5.7
time after which study was terminated ([3]; mouse): 60 min
tolerability in mouse PK study ([3]; mouse): displayed the similar symptoms as with compound 28
pIC50 in phenotypic cell health assay [4]: showed potency in the cell health assay
IC50 [7]: 15.8 µM
activity in phospholipidosis assay (phospholipidosis): activity

The next lines start with results.

Ld InMac (pEC50) (L. donovani amastigotes; L. donovani amastigotes in THP-1 cells, 96 h compound exposure): 6.2
LdInMac pIC50 (L. donovani amastigotes): 6.2
Cli (mouse liver microsomal intrinsic clearance) [1]: 0.8 mL/min/g
Cli (mouse, ml/min/g) [1]: 0.8 mL/min/g
solubility kinetic [2]: >250 µM
ChromLogDpH7.4 (Chrom Log D pH7.4): 3.2
ChromLogD (Chrom Log D pH7.4; supplement sheet): 3.2
Tmax [5]: 30 min
Tmax ([5]; ip, 50 mg/kg): 30 min
glucuronidated adducts in blood samples ([5]; ip, 50 mg/kg): presence of glucuronidated adducts
time unbound blood concentration exceeds EC99 ([5]; ip, 50 mg/kg): only during the first hour post-dose
clearance in mouse hepatocytes ([6]; mouse, hepatocytes): 1.4 mL/min/g
SMILES: COc1ccccc1-c1nc(-c2nc(C)n[nH]2)c(O)c2ncccc12 [Compound 16, 5-(2-Methoxyphenyl)-7-(3-methyl-1H-1,2,4-triazol-5-yl)-1,6-naphthyridin-8-ol]
THP-1 (pEC50) (THP-1 cells): <4.3
THP1 pIC50 (THP-1 cells): <4.3
reduction of parasite burden in mouse liver (Leishmania donovani; 50 mg/kg ip twice daily, 5 days): 46%
VL mouse efficacy model Reduction in parasite levels % (Leishmania donovani; supplement sheet): 46%
glucuronide adduct observed in hepatocytes [6]: negligible amounts of the glucuronide adduct

IC50 (L. donovani amastigotes; Leishmania donovani): 10 µM
SMILES: CNC(=O)c1nc(-c2ccccc2OC)c2cccnc2c1O [Compound 26, 8-Hydroxy-5-(2-methoxyphenyl)-N-methyl-1,6-naphthyridine-7-carboxamide]
IC50 (THP-1 cells): 39.8 µM
parent remaining in blood ([3]; Balb C mice, 8 h post-dose): significant quantities of parent were still present 8 h post-dose
in vivo glucuronidation / metabolites ([3]; Balb C mice, blood): little evidence of glucuronidation

LdInMac pIC50 (L. donovani amastigotes): 5.8
Cli (mouse liver microsomal intrinsic clearance) [1]: 3.4 mL/min/g
Cli (mouse, ml/min/g) [1]: 3.4 mL/min/g
solubility kinetic [2]: 219 µM (≈ 80.3 µg/mL)
ChromLogDpH7.4 (Chrom Log D pH7.4): 4.4
ChromLogD (Chrom Log D pH7.4; supplement sheet): 4.4
SMILES: Cc1n[nH]c(-c2nc(NCc3ccc(Cl)cc3)c3cccnc3c2O)n1 [Compound 10, 5-((4-Chlorobenzyl)amino)-7-(3-methyl-1H-1,2,4-triazol-5-yl)-1,6-naphthyridin-8-ol]
THP-1 (pEC50) (THP-1 cells): <4.3
THP1 pIC50 (THP-1 cells): <4.3
